Data: PubChem BioAssay AID1963986 (Molecular Pharmacology Branch, DTP, NCI, 2024)
pIC50: −log10 of the molar value.

Tested on: 171881-019-R-J1-PDC tumor spheroid viability
Experiment: Anticancer human tumor 171881-019-R-J1-PDC patient-derived invasive breast carcinoma cell line growth inhibition [PI3K]
Settings: spheroids with HUVEC and MSC; for pIC50: curve of first compound; for viability, T/C: stronger effect = lower value
In short: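 Viability of mixed-cell spheroids was determined after exposure to pairwise combinations, one partner being inavolisib, alpelisib, duvelisib or copanlisib. Highest tested concentration matched clinical Cmax where known and 10 microM where not, descending in half-log steps.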

[1] = second compound 0.0316 µM, first compound 0.0316 µM
[2] = second compound 0.0316 µM, first compound 0.1 µM
[3] = second compound 0.0316 µM, first compound 0.316 µM
[4] = second compound 0.0316 µM, first compound 1 µM
[5] = second compound 0.0316 µM, first compound 3.16 µM
[6] = second compound 0.0316 µM, first compound 10 µM
[7] = second compound 0.1 µM, first compound 0.0316 µM
[8] = second compound 0.1 µM, first compound 0.1 µM
[9] = second compound 0.1 µM, first compound 0.316 µM
[10] = second compound 0.1 µM, first compound 1 µM
[11] = second compound 0.1 µM, first compound 3.16 µM
[12] = second compound 0.1 µM, first compound 10 µM
[13] = second compound 0.316 µM, first compound 0.0316 µM
[14] = second compound 0.316 µM, first compound 0.1 µM
[15] = second compound 0.316 µM, first compound 0.316 µM
[16] = second compound 0.316 µM, first compound 1 µM
[17] = second compound 0.316 µM, first compound 3.16 µM
[18] = second compound 0.316 µM, first compound 10 µM
[19] = second compound 1 µM, first compound 0.0316 µM
[20] = second compound 1 µM, first compound 0.1 µM
[21] = second compound 1 µM, first compound 0.316 µM
[22] = second compound 1 µM, first compound 1 µM
[23] = second compound 1 µM, first compound 3.16 µM
[24] = second compound 1 µM, first compound 10 µM
[25] = second compound 3.16 µM, first compound 0.0316 µM
[26] = second compound 3.16 µM, first compound 0.1 µM
[27] = second compound 3.16 µM, first compound 0.316 µM
[28] = second compound 3.16 µM, first compound 1 µM
[29] = second compound 3.16 µM, first compound 3.16 µM
[30] = second compound 3.16 µM, first compound 10 µM
[31] = second compound 10 µM, first compound 0.0316 µM
[32] = second compound 10 µM, first compound 0.1 µM
[33] = second compound 10 µM, first compound 0.316 µM
[34] = second compound 10 µM, first compound 1 µM
[35] = second compound 10 µM, first compound 3.16 µM
[36] = second compound 10 µM, first compound 10 µM
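Note: spheroids exposed to compound for 7 days before viability read.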
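Throughout, for viability, T/C: 100% = DMSO vehicle-treated spheroids.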

## Cn1ncc(Cl)c1-c1cc(C(=O)NC(CN)Cc2cccc(F)c2)sc1Cl (centres undefined) + CC(Nc1ncnc2nc[nH]c12)c1cc2cccc(Cl)c2c(=O)n1-c1ccccc1
Second compound 0.0316 µM
  pIC50: 6.84
Second compound 0.1 µM
  pIC50: 6.76
Second compound 0.316 µM
  pIC50: 6.79
Second compound 1 µM
  pIC50: 6.82
Second compound 3.16 µM
  pIC50: 6.90
Second compound 10 µM
  pIC50: 7.15
[1]
  viability, T/C: 88.2%
[2]
  viability, T/C: 58.2%
[3]
  viability, T/C: 32.5%
[4]
  viability, T/C: 20.9%
[5]
  viability, T/C: 13.4%
[6]
  viability, T/C: 3.64%
[7]
  viability, T/C: 81.7%
[8]
  viability, T/C: 64.9%
[9]
  viability, T/C: 33.2%
[10]
  viability, T/C: 20.6%
[11]
  viability, T/C: 13.3%
[12]
  viability, T/C: 6.15%
[13]
  viability, T/C: 86.4%
[14]
  viability, T/C: 62.4%
[15]
  viability, T/C: 32.8%
[16]
  viability, T/C: 21.4%
[17]
  viability, T/C: 13.1%
[18]
  viability, T/C: 4.15%
[19]
  viability, T/C: 72.2%
[20]
  viability, T/C: 59.6%
[21]
  viability, T/C: 33.7%
[22]
  viability, T/C: 18.5%
[23]
  viability, T/C: 11.6%
[24]
  viability, T/C: 3.79%
[25]
  viability, T/C: 78.5%
[26]
  viability, T/C: 55.3%
[27]
  viability, T/C: 30.4%
[28]
  viability, T/C: 17.1%
[29]
  viability, T/C: 9%
[30]
  viability, T/C: 2.75%
[31]
  viability, T/C: 62.5%
[32]
  viability, T/C: 44.8%
[33]
  viability, T/C: 25.2%
[34]
  viability, T/C: 12.3%
[35]
  viability, T/C: 6.81%
[36]
  viability, T/C: 2.88%

## Cn1nccc1Nc1nccc(-c2ccn(C(CO)c3ccc(Cl)c(F)c3)c(=O)c2)n1 (centres undefined) + CC(Nc1ncnc2nc[nH]c12)c1cc2cccc(Cl)c2c(=O)n1-c1ccccc1
Second compound 0.0316 µM
  pIC50: 6.26
Second compound 0.1 µM
  pIC50: 6.33
Second compound 0.316 µM
  pIC50: 6.33
Second compound 1 µM
  pIC50: 6.46
Second compound 3.16 µM
  pIC50: 6.77
Second compound 10 µM
  pIC50: 7.45
[1]
  viability, T/C: 94%
[2]
  viability, T/C: 84%
[3]
  viability, T/C: 62.2%
[4]
  viability, T/C: 36.6%
[5]
  viability, T/C: 24%
[6]
  viability, T/C: 20.7%
[7]
  viability, T/C: 91.1%
[8]
  viability, T/C: 88.1%
[9]
  viability, T/C: 54.7%
[10]
  viability, T/C: 37.1%
[11]
  viability, T/C: 23.6%
[12]
  viability, T/C: 19.9%
[13]
  viability, T/C: 104%
[14]
  viability, T/C: 89.6%
[15]
  viability, T/C: 56.9%
[16]
  viability, T/C: 35.1%
[17]
  viability, T/C: 23.1%
[18]
  viability, T/C: 18.5%
[19]
  viability, T/C: 98.4%
[20]
  viability, T/C: 77.4%
[21]
  viability, T/C: 51.4%
[22]
  viability, T/C: 31.3%
[23]
  viability, T/C: 21.3%
[24]
  viability, T/C: 15.7%
[25]
  viability, T/C: 79.3%
[26]
  viability, T/C: 61.2%
[27]
  viability, T/C: 36%
[28]
  viability, T/C: 21.8%
[29]
  viability, T/C: 14.9%
[30]
  viability, T/C: 13%
[31]
  viability, T/C: 51.3%
[32]
  viability, T/C: 39.2%
[33]
  viability, T/C: 27.9%
[34]
  viability, T/C: 15%
[35]
  viability, T/C: 10.6%
[36]
  viability, T/C: 6.93%
